Article PMC6277434, “Discovery of a potent HMG-CoA reductase degrader that eliminates statin-induced reductase accumulation and lowers cholesterol” (Nature Communications, 2018)

Columns and labels:
[1] = molecular target: T1, HMGCR (TM1-8)-GFP (Cricetulus griseus, UniProt P00347)
T1 sequence (P00347 1-346): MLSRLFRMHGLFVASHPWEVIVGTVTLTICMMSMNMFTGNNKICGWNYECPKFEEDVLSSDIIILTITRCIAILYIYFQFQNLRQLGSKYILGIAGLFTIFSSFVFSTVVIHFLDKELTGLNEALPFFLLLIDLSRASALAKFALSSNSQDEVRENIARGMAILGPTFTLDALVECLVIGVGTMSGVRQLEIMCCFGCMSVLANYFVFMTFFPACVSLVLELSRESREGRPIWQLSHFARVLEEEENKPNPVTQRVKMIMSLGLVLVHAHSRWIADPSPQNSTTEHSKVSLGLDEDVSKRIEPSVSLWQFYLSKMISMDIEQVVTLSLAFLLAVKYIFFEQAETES
Protocol: (§1) We thus generated a cell line stably expressing the transmembrane domain of HMGCR fused with green fluorescent protein (GFP) as a reporter (HMGCR (TM1-8)-GFP) (Fig. 2a).
(§2) CHO-7 cells were transfected with pCMV-HMGCR (TM1-8)-GFP using FuGENE HD. Twenty-four hours, cells were switched to medium B supplemented with 5% FBS and selected in the presence of 1 mg ml^−1 G418 for 2 weeks. Surviving colonies were isolated and confirmed for GFP expression by immunoblotting and immunofluorescence. The resulting CHO-7/HMGCR (TM1-8)-GFP stable cell line (CHG) was maintained in medium B supplemented with 5% FBS and 200 μg ml^−1 G418.
(§3) CHG cells were treated as described in figure legends. Briefly, cells were seeded at day 0 in 96-well black plate (3904, Corning) at a density of 1.5 × 10^4 cells per well, in medium B containing with 5% LPDS. Day 1, corresponding compounds were added as figure legends described in medium B with 5% LPDS, 1 μM lovastatin, 50 μM sodium mevalonate for 16 h. Then cells were fixed with 4% paraformaldehyde for 20 min, washed with PBS for three times, and stained with 2 μg ml^−1 Hoechst 33342.
(§4) The fluorescent images (GFP and Hoechst channel) were captured using an Operatta High-Content Imaging System (PerkinElmer) with a ×20 objective. The cytoplasmic GFP fluorescence was measured with the Harmony Software (PerkinElmer). Five random selected filed per well were captured, and about 3000 cells were used to determine the mean cytoplasmic GFP fluorescent intensity per cell after subtracting background GFP intensity. The average GFP intensity of DMSO-treated cells was defined as 100.

[2] = molecular target: T1, HMGCR (TM1-8)-GFP; test: HMGCR (TM1-8)-GFP fluorescent assay (high-content imaging) in CHG cells; settings: read-out: Mean (HMGCR (TM1-8)-GFP signal relative to 0 μM = 100)
Protocol: as §1, §2, §3, §4

Structure (SMILES)	DC50 [1] [µM]	remaining activity at 0.156 µM [2] [%]	remaining activity at 0.313 µM [2] [%]	remaining activity at 0.625 µM [2] [%]	remaining activity at 1.25 µM [2] [%]	remaining activity at 2.5 µM [2] [%]	remaining activity at 5 µM [2] [%]	remaining activity at 10 µM [2] [%]
COCCCC[C@@H](C)C1CCC2C3C(CC[C@@]21C)[C@@]1(C)CC[C@H](O)C(C)(C)C1=C[C@@H]3O (stereo partly shown) [Compound 78]	1.85	105	98	81.1	60.7	36.9	21.4	15.7
C[C@H](CCCC(C)(C)O)C1CCC2C3C(CC[C@@]21C)[C@@]1(C)CC[C@H](O)C(C)(C)C1=C[C@@H]3O (stereo partly shown) [Compound 79]	0.64	87.9	77.2	59.3	38.6	23.5	16.1	12.2
CCC(O)(CC)CCC[C@@H](C)C1CCC2C3C(CC[C@@]21C)[C@@]1(C)CC[C@H](O)C(C)(C)C1=C[C@@H]3O (stereo partly shown) [Compound 80]	0.55	85.3	75.8	58.1	33.7	18.3	12.1	10.3
CC(O)CCC[C@@H](C)C1CCC2C3C(CC[C@@]21C)[C@@]1(C)CC[C@H](O)C(C)(C)C1=C[C@@H]3O (stereo partly shown) [Compound 86]	2.17	96.6	88.8	78.7	64.4	44.4	28.4	19.7
CCC(O)CCC[C@@H](C)C1CCC2C3C(CC[C@@]21C)[C@@]1(C)CC[C@H](O)C(C)(C)C1=C[C@@H]3O (stereo partly shown) [Compound 87]	1.08	91.3	78.3	62.1	43.1	26.7	20.1	18.9
C=CCC(O)CCC[C@@H](C)C1CCC2C3C(CC[C@@]21C)[C@@]1(C)CC[C@H](O)C(C)(C)C1=C[C@@H]3O (stereo partly shown) [Compound 88]	0.91	82.3	75.6	67.9	37.1	17.6	12	16.6
C[C@H](CCCCC(=O)O)C1CCC2C3C(CC[C@@]21C)[C@@]1(C)CC[C@H](O)C(C)(C)C1=C[C@@H]3O (stereo partly shown) [Compound 92]	12.3	104	98.4	98.7	96.3	87	71.8	58
C[C@H](CCCCC(C)(C)O)C1CCC2C3C(CC[C@@]21C)[C@@]1(C)CC[C@H](O)C(C)(C)C1=C[C@@H]3O (stereo partly shown) [Compound 100]	0.51	78.6	69.4	51.6	33.5	21.6	14.8	12.4
CCC(O)(CC)CCCC[C@@H](C)C1CCC2C3C(CC[C@@]21C)[C@@]1(C)CC[C@H](O)C(C)(C)C1=C[C@@H]3O (stereo partly shown) [Compound 101]	0.59	86.6	74	52.3	35.6	22.8	15.2	15.2
C=CCC(O)(CC=C)CCCC[C@@H](C)C1CCC2C3C(CC[C@@]21C)[C@@]1(C)CC[C@H](O)C(C)(C)C1=C[C@@H]3O (stereo partly shown) [Compound 102]	1.92	108	104	86.9	56.5	37.2	31.7	31.8
CC(O)CCCC[C@@H](C)C1CCC2C3C(CC[C@@]21C)[C@@]1(C)CC[C@H](O)C(C)(C)C1=C[C@@H]3O (stereo partly shown) [Compound 107]	1.29	90.7	83.1	72.6	51.8	26.9	17.1	13.1
CCC(O)CCCC[C@@H](C)C1CCC2C3C(CC[C@@]21C)[C@@]1(C)CC[C@H](O)C(C)(C)C1=C[C@@H]3O (stereo partly shown) [Compound 108]	1.03	90.7	77.2	56.5	39.2	29.4	25.5	18.6
C=CCC(O)CCCC[C@@H](C)C1CCC2C3C(CC[C@@]21C)[C@@]1(C)CC[C@H](O)C(C)(C)C1=C[C@@H]3O (stereo partly shown) [Compound 109]	0.91	91	76.5	54.8	36.4	23.5	18.8	25.2
C[C@H](CCCCCCO)C1CCC2C3C(CC[C@@]21C)[C@@]1(C)CC[C@H](O)C(C)(C)C1=C[C@@H]3O (stereo partly shown) [Compound 113]	1.72	94.7	91.3	72.7	57.4	35.8	22	24.1
C[C@H](CCCCCC(C)(C)O)C1CCC2C3C(CC[C@@]21C)[C@@]1(C)CC[C@H](O)C(C)(C)C1=C[C@@H]3O (stereo partly shown) [Compound 117]	0.71	92	72.4	47.7	29.5	20.4	16.1	20.4
CCC(O)(CC)CCCCC[C@@H](C)C1CCC2C3C(CC[C@@]21C)[C@@]1(C)CC[C@H](O)C(C)(C)C1=C[C@@H]3O (stereo partly shown) [Compound 118]	0.97	93.8	76.6	55.5	38.3	26.4	20.4	21.8
C=CCC(O)(CC=C)CCCCC[C@@H](C)C1CCC2C3C(CC[C@@]21C)[C@@]1(C)CC[C@H](O)C(C)(C)C1=C[C@@H]3O (stereo partly shown) [Compound 119]	4.13	92.9	96	91.6	81.1	62.7	42.5	28.9
CC(O)CCCCC[C@@H](C)C1CCC2C3C(CC[C@@]21C)[C@@]1(C)CC[C@H](O)C(C)(C)C1=C[C@@H]3O (stereo partly shown) [Compound 124]	0.92	88	78.3	62.2	38.2	19.5	14.7	21.8
CCC(O)CCCCC[C@@H](C)C1CCC2C3C(CC[C@@]21C)[C@@]1(C)CC[C@H](O)C(C)(C)C1=C[C@@H]3O (stereo partly shown) [Compound 125]	1.83	83.6	77.5	65.3	50.2	41.6	34.7	33.6
C=CCC(O)CCCCC[C@@H](C)C1CCC2C3C(CC[C@@]21C)[C@@]1(C)CC[C@H](O)C(C)(C)C1=C[C@@H]3O (stereo partly shown) [Compound 126]	2.45	76.4	72.3	58.7	50.3	44.6	45.5	44.4
